Drawing on the RepoRT retention time repository, this text covers LC retention time for 34 compounds.

Each structure is given as a SMILES string.

This data set can be described thus: HILIC, HILICON iHILIC-(P) Classic, HILIC, PEEK, 100 × 2.1 mm, 5 µm, 40 °C, 0.15 mL/min, estimated dead time 1.5 min; A: water + 20 mM ammonium carbonate + 5 µM medronic acid; B: 10% water + 90% acetonitrile + 2 mM ammonium carbonate + 0.5 µM medronic acid; gradient (min/%B) 0/95 18/55 19/20 22/20 22.5/95 24/95 26/95. To be noted: stereoisomer not certain.
Take `NC(CCC(=O)NC(CSSCC(NC(=O)CCC(N)C(=O)O)C(=O)NCC(=O)O)C(=O)NCC(=O)O)C(=O)O` (centres undefined) [GSSG]: the LC retention time was 15.1 min.
In the case of `O=C(O)CC(C(=O)O)C(O)C(=O)O` (centres undefined) [Isocitric acid], the LC retention time is 15.9 min.
Consider `NC(=O)CC(N)C(=O)O` (centres undefined) [Asparagine], for which the LC retention time was 10.4 min.
On to `O=P(O)(O)OCC(O)CO` (centres undefined) [Glycerol-3-phosphate], for which the LC retention time is 11.1 min.
With `NC(CCC(=O)O)C(=O)O` (centres undefined) [Glutamic acid], the LC retention time is 9.88 min.
With `NC(CCC(=O)NC(CS)C(=O)NCC(=O)O)C(=O)O` (centres undefined) [GSH], the LC retention time was 9.58 min.
In the case of `CC(O)C(=O)O` (centres undefined) [Lactic Acid], the LC retention time is 2.68 min.
For `NC(=O)C1=CN(C2OC(COP(=O)(O)OP(=O)(O)OCC3OC(n4cnc5c(N)ncnc54)C(OP(=O)(O)O)C3O)C(O)C2O)C=CC1` (centres undefined) [NADPH], the LC retention time was 16.4 min.
Take `O=C(O)CCC(=O)O` [Succinic Acid]: the LC retention time is 11.2 min.
`O=P(O)(O)OCC1OC(O)C(O)C(O)C1O` (centres undefined) [Glucose-6-phosphate]: the LC retention time was 13.7 min.
The result for `NC(=O)c1ccc[n+](C2OC(COP(=O)(O)OP(=O)(O)OCC3OC(n4cnc5c(N)ncnc54)C(OP(=O)(O)O)C3O)C(O)C2O)c1` (centres undefined) [NADP] reads 14.5 min.
With `NC(CC(=O)O)C(=O)O` (centres undefined) [Aspartic Acid], the LC retention time was 10.3 min.
As for `O=C(CO)C(O)C(O)C(O)COP(=O)(O)O` (centres undefined) [Fructose 6-phosphate], the LC retention time is 12.3 min.
In the case of `CC(=O)NC1C(OP(=O)(O)OP(=O)(O)OCC2OC(n3ccc(=O)[nH]c3=O)C(O)C2O)OC(CO)C(O)C1O` (centres undefined) [UDP-GlcNAc] it was 12 min.
On to `Nc1ncnc2c1ncn2C1OC(COP(=O)(O)O)C(O)C1O` (centres undefined) [AMP], for which the LC retention time is 10.4 min.
With `Nc1ncnc2c1ncn2C1OC(CO)C(O)C1O` (centres undefined) [Adenosine], the LC retention time was 3.83 min.
On to `Nc1ncnc2c1ncn2C1OC(COP(=O)(O)OP(=O)(O)OP(=O)(O)O)C(O)C1O` (centres undefined) [ATP], for which the LC retention time is 14.6 min.
Turning to `O=C(O)C=CC(=O)O` [Fumaric Acid], the LC retention time was 12.7 min.
As to `NCCCCC(N)C(=O)O` (centres undefined) [Lysine], the LC retention time is 18.7 min.
As for `NC(=O)CCC(N)C(=O)O` (centres undefined) [Glutamine], the LC retention time was 10.2 min.
Consider `Nc1ncnc2c1ncn2C1OC(COP(=O)(O)OP(=O)(O)O)C(O)C1O` (centres undefined) [ADP], for which the LC retention time was 12 min.
Consider `O=C(O)CC(O)(CC(=O)O)C(=O)O` [Citric acid], for which the LC retention time was 15.3 min.
In the case of `O=P(O)(O)OC1OC(CO)C(O)C(O)C1O` (centres undefined) [Glucose-1-phosphate], the LC retention time was 12.3 min.
Consider `O=P(O)(O)OCC1OC(O)(COP(=O)(O)O)C(O)C1O` (centres undefined) [Fructose-1,6-bisphosphate], for which the LC retention time was 16.3 min.
Regarding `NC(=O)C1=CN(C2OC(COP(=O)(O)OP(=O)(O)OCC3OC(n4cnc5c(N)ncnc54)C(O)C3O)C(O)C2O)C=CC1` (centres undefined) [NADH], the LC retention time is 9.88 min.
For `O=C(O)CC(O)C(=O)O` (centres undefined) [Malic Acid], the LC retention time is 11.9 min.
In the case of `CC(=O)SCCNC(=O)CCNC(=O)C(O)C(C)(C)COP(=O)(O)OP(=O)(O)OCC1OC(n2cnc3c(N)ncnc32)C(O)C1OP(=O)(O)O` (centres undefined) [Acetyl-CoA] it was 10 min; in that of `O=C(O)CCC(=O)C(=O)O` [2-Oxoglutaric acid], 13 min; in that of `O=P(O)(O)OCC1OC(O)C(O)C1O` (centres undefined) [Pentose-phosphate], 11.5 min.
Take `C=C(OP(=O)(O)O)C(=O)O` [PEP]: the LC retention time was 14.6 min.
Turning to `NC(N)=NCCCC(N)C(=O)O` (centres undefined) [Arginine], the LC retention time was 18.9 min.
For `NC(=O)c1ccc[n+](C2OC(COP(=O)(O)OP(=O)(O)OCC3OC(n4cnc5c(N)ncnc54)C(O)C3O)C(O)C2O)c1` (centres undefined) [NAD], the LC retention time is 10.3 min.
As for `CC(C)(COP(=O)(O)OP(=O)(O)OCC1OC(n2cnc3c(N)ncnc32)C(O)C1OP(=O)(O)O)C(O)C(=O)NCCC(=O)NCCS` (centres undefined) [CoenzymeA], the LC retention time is 11.6 min.
In the case of `O=C(CO)COP(=O)(O)O` [Triose phosphate], the LC retention time is 11.4 min.
